{"source": "ChEMBL document CHEMBL3758109", "about": "“A novel triazole derivative of betulinic acid induces extrinsic and intrinsic apoptosis in human leukemia HL-60 cells” (Eur J Med Chem, 2016)", "key": {"[1]": {"test_system": "HL-60", "experiment": "Induction of apoptosis in human HL60 cells assessed as activation of procaspase- 9 at 5 to 20 uM after 24 hrs by Western blot", "type": "functional, cell-based"}, "[2]": {"test_system": "HL-60", "experiment": "Induction of apoptosis in human HL60 cells assessed as activation of caspase- 3 at 5 to 20 uM after 24 hrs by Western blot", "type": "functional, cell-based"}, "[3]": {"test_system": "HL-60", "experiment": "Induction of apoptosis in human HL60 cells at 10 uM after 24 hrs by propidium iodide staining based flow cytometry (reference value: 3%)", "type": "functional"}, "[4]": {"experiment": "Cell cycle arrest in human HL60 cells assessed as accumulation at G2/M phase at 5 uM after 24 hrs by propidium iodide staining based flow cytometry (reference value: 6%)", "type": "functional", "details": "HL-60"}, "[5]": {"test_system": "HL-60", "experiment": "Induction of apoptosis in human HL60 cells assessed as activation of caspase- 7 at 5 to 20 uM after 24 hrs by Western blot", "type": "functional, cell-based"}, "[6]": {"test_system": "HL-60", "experiment": "Induction of apoptosis in human HL60 cells assessed as decrease in Bcl-2/Bax ratio after 24 hrs by Western blot", "type": "functional, cell-based"}, "[7]": {"experiment": "Cytotoxicity against human MIAPaCa2 cells assessed as cell growth inhibition at 10 uM after 48 hrs by MTT assay", "type": "functional", "details": "MIA PaCa-2, 48 h, read-out: GI"}, "[8]": {"test_system": "HL-60", "experiment": "Induction of apoptosis in human HL60 cells at 20 uM after 24 hrs by propidium iodide staining based flow cytometry (reference value: 3%)", "type": "functional"}, "[9]": {"test_system": "HL-60", "experiment": "Induction of mitochondrial potential loss in human HL60 cells at 5 uM after 24 hrs by rhodamine-123 staining based flow cytometry (reference value: 3%)", "type": "functional"}, "[10]": {"test_system": "HL-60", "experiment": "Induction of mitochondrial potential loss in human HL60 cells at 10 uM after 24 hrs by rhodamine-123 staining based flow cytometry (reference value: 3%)", "type": "functional"}, "[11]": {"test_system": "HL-60", "experiment": "Induction of apoptosis in human HL60 cells assessed as up regulation of Bax after 24 hrs by Western blot", "type": "functional, cell-based"}, "[12]": {"experiment": "Cell cycle arrest in human HL60 cells assessed as accumulation at G2/M phase at 20 uM after 24 hrs by propidium iodide staining based flow cytometry (reference value: 6%)", "type": "functional", "details": "HL-60"}, "[13]": {"experiment": "Cytotoxicity against human PC3 cells assessed as cell growth inhibition at 10 uM after 48 hrs by MTT assay", "type": "functional", "details": "PC-3, 48 h, read-out: GI"}, "[14]": {"test_system": "A549", "experiment": "Cytotoxicity against human A549 cells assessed as cell growth inhibition at 10 uM after 48 hrs by MTT assay", "type": "functional", "details": "A549, 48 h, read-out: GI"}, "[15]": {"experiment": "Cytotoxicity against human HL60 cells assessed as cell growth inhibition at 10 uM after 48 hrs by MTT assay", "type": "functional", "details": "HL-60, 48 h, read-out: GI"}, "[16]": {"experiment": "Cell cycle arrest in human HL60 cells assessed as accumulation at S phase at 5 uM after 24 hrs by propidium iodide staining based flow cytometry (reference value: 48%)", "type": "functional", "details": "HL-60"}, "[17]": {"test_system": "A549", "experiment": "Cytotoxicity against human A549 cells assessed as cell growth inhibition after 48 hrs by MTT assay", "type": "functional, cell-based", "details": "A549, 48 h"}, "[18]": {"experiment": "Cytotoxicity against human HL60 cells assessed as cell growth inhibition after 48 hrs by MTT assay", "type": "functional, cell-based", "details": "HL-60, 48 h"}, "[19]": {"experiment": "Cell cycle arrest in human HL60 cells assessed as accumulation at G1 phase at 10 uM after 24 hrs by propidium iodide staining based flow cytometry (reference value: 46%)", "type": "functional", "details": "HL-60"}, "[20]": {"test_system": "HL-60", "experiment": "Induction of apoptosis in human HL60 cells assessed as down regulation of Bcl-2 after 24 hrs by Western blot", "type": "functional, cell-based"}, "[21]": {"experiment": "Cytotoxicity against human PC3 cells assessed as cell growth inhibition after 48 hrs by MTT assay", "type": "functional, cell-based", "details": "PC-3, 48 h"}, "[22]": {"test_system": "HL-60", "experiment": "Induction of mitochondrial potential loss in human HL60 cells at 20 uM after 24 hrs by rhodamine-123 staining based flow cytometry (reference value: 3%)", "type": "functional"}, "[23]": {"experiment": "Cell cycle arrest in human HL60 cells assessed as accumulation at G1 phase at 20 uM after 24 hrs by propidium iodide staining based flow cytometry (reference value: 46%)", "type": "functional", "details": "HL-60"}, "[24]": {"experiment": "Cell cycle arrest in human HL60 cells assessed as accumulation at S phase at 10 uM after 24 hrs by propidium iodide staining based flow cytometry (reference value: 48%)", "type": "functional", "details": "HL-60"}, "[25]": {"test_system": "HL-60", "experiment": "Induction of apoptosis in human HL60 cells assessed as activation of procaspase- 8 at 5 to 20 uM after 24 hrs by Western blot", "type": "functional, cell-based"}, "[26]": {"experiment": "Cytotoxicity against human MIAPaCa2 cells assessed as cell growth inhibition after 48 hrs by MTT assay", "type": "functional, cell-based", "details": "MIA PaCa-2, 48 h"}, "[27]": {"test_system": "HL-60", "experiment": "Induction of apoptosis in human HL60 cells assessed as cleavage of PARP-1 at 5 to 20 uM after 24 hrs by Western blot", "type": "functional, cell-based"}, "[28]": {"test_system": "HL-60", "experiment": "Induction of apoptosis in human HL60 cells at 5 uM after 24 hrs by propidium iodide staining based flow cytometry (reference value: 3%)", "type": "functional"}, "[29]": {"experiment": "Cell cycle arrest in human HL60 cells assessed as accumulation at S phase at 20 uM after 24 hrs by propidium iodide staining based flow cytometry (reference value: 48%)", "type": "functional", "details": "HL-60"}, "[30]": {"test_system": "HL-60", "experiment": "Induction of mitochondrial potential loss in human HL60 cells after 24 hrs by rhodamine-123 staining based flow cytometry (reference value: 3%)", "type": "functional, cell-based"}, "[31]": {"experiment": "Cell cycle arrest in human HL60 cells assessed as accumulation at G2/M phase at 10 uM after 24 hrs by propidium iodide staining based flow cytometry (reference value: 6%)", "type": "functional", "details": "HL-60"}, "[32]": {"test_system": "HL-60", "experiment": "Induction of apoptosis in human HL60 cells assessed as activation of caspase- 6 at 5 to 20 uM after 24 hrs by Western blot", "type": "functional, cell-based"}, "[33]": {"experiment": "Cell cycle arrest in human HL60 cells assessed as accumulation at G1 phase at 5 uM after 24 hrs by propidium iodide staining based flow cytometry (reference value: 46%)", "type": "functional", "details": "HL-60"}}, "note": "Calls of active or inactive are those of the source. No cut-off for these calls is given here.", "data": [{"molecule": "C=C(C)[C@@H]1CC[C@]2(C(=O)OCc3cn(-c4ccc(F)cc4)nn3)CC[C@]3(C)[C@H](CC[C@@H]4[C@@]5(C)CC[C@H](O)C(C)(C)[C@@H]5CC[C@]43C)[C@@H]12", "values": [{"measurement": "Activity", "setting": "[1]", "result": "Active"}, {"measurement": "Activity", "setting": "[2]", "result": "Active"}, {"measurement": "Activity", "setting": "[3]", "result": 7, "unit": "%"}, {"measurement": "Activity", "setting": "[4]", "result": 5, "unit": "%"}, {"measurement": "Activity", "setting": "[5]", "result": "Active"}, {"measurement": "Activity", "setting": "[6]", "result": "Active"}, {"measurement": "inhibition of growth at 10 µM", "setting": "[7]", "result": 75, "unit": "%"}, {"measurement": "Activity", "setting": "[8]", "result": 14, "unit": "%"}, {"measurement": "Activity", "setting": "[9]", "result": 7, "unit": "%"}, {"measurement": "Activity", "setting": "[10]", "result": 18, "unit": "%"}, {"measurement": "Activity", "setting": "[11]", "result": "Active"}, {"measurement": "Activity", "setting": "[12]", "result": 1, "unit": "%"}, {"measurement": "inhibition of growth at 10 µM", "setting": "[13]", "result": 62, "unit": "%"}, {"measurement": "inhibition of growth at 10 µM", "setting": "[14]", "result": 63, "unit": "%"}, {"measurement": "inhibition of growth at 10 µM", "setting": "[15]", "result": 69, "unit": "%"}, {"measurement": "Activity", "setting": "[16]", "result": 47, "unit": "%"}, {"measurement": "IC50", "setting": "[17]", "result": 7, "unit": "µM"}, {"measurement": "IC50", "setting": "[18]", "result": 7, "unit": "µM"}, {"measurement": "Activity", "setting": "[19]", "result": 53, "unit": "%"}, {"measurement": "Activity", "setting": "[20]", "result": "Dose-dependent effect"}, {"measurement": "IC50", "setting": "[21]", "result": 7, "unit": "µM"}, {"measurement": "Activity", "setting": "[22]", "result": 27, "unit": "%"}, {"measurement": "Activity", "setting": "[23]", "result": 90, "unit": "%"}, {"measurement": "Activity", "setting": "[24]", "result": 44, "unit": "%"}, {"measurement": "Activity", "setting": "[25]", "result": "Active"}, {"measurement": "IC50", "setting": "[26]", "result": 5, "unit": "µM"}, {"measurement": "Activity", "setting": "[27]", "result": "Active"}, {"measurement": "Activity", "setting": "[28]", "result": 5, "unit": "%"}, {"measurement": "Activity", "setting": "[29]", "result": 9, "unit": "%"}, {"measurement": "Activity", "setting": "[30]", "result": "Dose-dependent effect"}, {"measurement": "Activity", "setting": "[31]", "result": 3, "unit": "%"}, {"measurement": "Activity", "setting": "[32]", "result": "Active"}, {"measurement": "Activity", "setting": "[33]", "result": 48, "unit": "%"}]}]}
